From patent publication US11786517B2, “Methods of treatment using a JAK inhibitor compound” (THERAVANCE BIOPHARMA R&D IP, LLC, priority 2017, dated 2023)

Legend:
[1] = system: IL-13 induced pSTAT6 in lung tissue; assay: Murine model of IL-13 induced pSTAT6 induction in lung tissue; type: in vivo, balb/c mice; settings: mouse lung, 0.5 mg/mL 50 μL oral aspiration
Procedure: Il-13 is an important cytokine underlying the pathophysiology of asthma (Kudlacz et al. Eur. J. Pharmacol, 2008, 582, 154-161). IL-13 binds to cell surface receptors activating members of the Janus family of kinases (JAK) which then phosphorylate STAT6 and subsequently activates further transcription pathways. In the described model, a dose of IL-13 was delivered locally into the lungs of mice to induce the phosphorylation of STAT6 (pSTAT6) which is then measured as the endpoint.
Adult balb/c mice from Harlan were used in the assay. On the day of study, animals were lightly anesthetized with isoflurane and administered either vehicle or test compound (0.5 mg/mL, 50 μL total volume over several breaths) via oral aspiration. Animals were placed in lateral recumbency post dose and monitored for full recovery from anesthesia before being returned to their home cage. Four hours later, animals were once again briefly anesthetized and challenged with either vehicle or IL-13 (0.03 μg total dose delivered, 50 μL total volume) via oral aspiration before being monitored for recovery from anesthesia and returned to their home cage. […] using an anti-pSTAT6 ELISA (rabbit mAb capture/coating antibody; mouse mAb detection/report antibody: anti-pSTAT6-pY641; secondary antibody: anti-mouse IgG-HRP) and analyzed for total drug concentration as described above in Assay 11. […]

[2] = system: airway neutrophils; assay: Murine model of LPS/G-CSF/IL-6/IFNγ cocktail-induced airway neutrophilic inflammation; type: in vivo, Balb/C mice; settings: mouse, 1.0 mg/mL 50 μL oropharyngeal aspiration, BALF at twenty-four hours
Procedure: Airway neutrophilia is a hallmark of a range of respiratory disease in humans. Compound 1 was tested in a model of neutrophilic airway inflammation using a LPS/G-CSF/IL-6/IFNγ cocktail to induce airway neutrophilia.
Seven- to nine-week old male Balb/C (wildtype) mice from Jackson Laboratory were used in the study. On the day of study, animals were lightly anesthetized with isoflurane and administered either vehicle or test compound (1.0 mg/mL, 50 μL total volume over several breaths) via oropharyngeal aspiration. Animals were placed in lateral recumbency post dose and monitored for full recovery from anesthesia before being returned to their home cage. One hour later, animals were once again briefly anesthetized and challenged with either vehicle or LPS; 0.01 mg/kg/G-CSF; 5 μg/IL-6; 5 μg/IFNγ; 5 μg (100 μL total volume) via oropharyngeal aspiration (OA). Twenty-four hours after the LPS/G-CSF/IL-6/IFNγ cocktail administration, bronchoalveolar lavage fluid (BALF) was collected and neutrophils were counted.

[3] = system: IFNγ induced IP-10 protein levels; assay: Pharmacodynamic assay: inhibition of IFNγ-induced IP-10 in rabbits; type: in vivo, New Zealand White rabbits
Procedure: The ability of a single intravitreal administration of test compound to inhibit interferon-gamma (IFNγ) induced IP-10 protein levels was measured in rabbit vitreous and retina/choroid tissues.
Solution formulations at concentrations of 1 mg/mL and 4 mg/mL of compound 1 of Example 1 were prepared as in Assay 8. A suspension formulation was prepared by combining crystalline compound 1 of Example 1 with 0.5% hydroxypropyl methylcellulose (HPMC E5), 0.02% Tween 80, and 9 mg/mL sodium chloride in purified water to attain a target concentration of 20 mg/mL.
Male, New Zealand White rabbits (Liveon Biolabs, India) were used for the studies. Animals were acclimated after arrival at the research facilities (Jubilant Biosys Ltd., India). Each rabbit was given a total of two intravitreal (IVT) injections with a total dose volume of 50 μL per eye. The first IVT injection (45 μL per eye) delivered test compound or vehicle at a prescribed time point (i.e. 24 hours for the solution formulations or 1 week for the suspension formulation). The second IVT injection (5 μL per eye) delivered IFNγ (1 μg/eye; Stock solution 1 mg/mL; Kingfisher Biotech) or vehicle for the induction of IP-10. In brief, on the day of the injections, rabbits were anesthetized with an intramuscular injection of ketamine (35 mg/kg) and xylazine (5 mg/kg). Once deeply anesthetized, each eye was rinsed with sterile saline and IVT injections were performed using a 0.5 mL insulin syringe (50 units=0.5 mL) with a 31-gauge needle at the supra-nasal side of the both eyes by marking the position with a Braunstein fixed caliper (2¾″) 3.5 mm from the rectus muscle and 4 mm from the limbus.
Tissues were collected 24 hours after the second IVT injection with IFNγ. Vitreous humor (VH) and retina/choroid tissues (R/C) were collected and homogenized, and IP-10 protein levels were measured using a rabbit CXCL10 (IP-10) ELISA kit (Kingfisher Biotech). The percent inhibition of IFNγ-induced IP-10 was calculated in comparison to the vehicle/vehicle and vehicle/IFNγ groups.

[4] = Ocular pharmacokinetics in rabbit eyes; type: in vivo, New Zealand white rabbits; settings: intravitreal injection, listed as compound of the invention
Procedure: The objective of this assay was to determine the pharmacokinetics of the test compound in rabbit ocular tissues.
The compound of the invention, 5-ethyl-2-fluoro-4-(3-(5-(1-methylpiperidin-4-yl)-4,5,6,7-tetrahydro-1H-imidazo[4,5-c]pyridin-2-yl)-1H-indazol-6-yl)phenol (1) was dissolved in either 10% 2-hydroxypropyl-β-cyclodextrin to attain a target concentration of 4 mg/mL or in purified water to attain a target concentration of 1 mg/mL. Bilateral intravitreal injection (50 μL/eye) of the solution of test compound was administered to New Zealand white rabbits in two dose groups, 200 μg/eye and 50 μg/eye, respectively, for the cyclodextrin and water vehicle formulations, respectively. The test compound concentration was measured in ocular tissues: vitreous, aqueous, retina/choroid and iris-ciliary body at pre-determined time points post injection (30 min, 4 h, 1 d, 3 d, 7 d, 14 d). Two rabbits (four eyes) were dosed for each time point.
A suspension formulation was prepared by combining crystalline compound 1 of Example 1 with 0.5% hydroxypropyl methylcellulose (HPMC E5)+0.02% Tween 80 to attain a target concentration of 10 mg/mL. Bilateral intravitreal injection (50 μL/eye) of the suspension of test compound was administered to New Zealand white rabbits (500 μg/eye). The test compound concentration was measured in ocular tissues as in the […] at 30 min, 2 wks, 4 wks, 6 wks, and 8 wks post injection. […] The behavior is consistent with the solubility of compound 1 in the vehicle and the ocular pharmacokinetic behavior in the solution formulation. The drug concentration in plasma was measured and found to be at least 3 orders of magnitude lower than the concentration in vitreous tissue.

Compound: CCc1cc(O)c(F)cc1-c1ccc2c(-c3nc4c([nH]3)CCN(C3CCN(C)CC3)C4)n[nH]c2c1 [compound 1, 5-ethyl-2-fluoro-4-(3-(5-(1-methylpiperidin-4-yl)-4,5,6,7-tetrahydro-1H-imidazo[4,5-c]pyridin-2-yl)-1H-indazol-6-yl)phenol]
- inhibition of STAT6 phosphorylation [1]: about 60%
- reduction of the airway neutrophils compared to vehicle treated mice [2]: 84%
- inhibition of IFNγ-induced IP-10 ([3]; rabbit retina/choroid tissue, 45 μg solution, 24 hour pre-treatment): 86
- inhibition of IFNγ-induced IP-10 ([3]; rabbit retina/choroid tissue, 180 μg solution, 24 hour pre-treatment): 100%
- inhibition of IFNγ-induced IP-10 ([3]; rabbit retina/choroid tissue, crystalline suspension 20 mg/mL, 1 week pre-treatment): 100%
- inhibition of IFNγ-induced IP-10 ([3]; rabbit vitreous humor, 45 μg solution, 24 hour pre-treatment): 70%
- inhibition of IFNγ-induced IP-10 ([3]; rabbit vitreous humor, 180 μg solution, 24 hour pre-treatment): 91%
- inhibition of IFNγ-induced IP-10 ([3]; rabbit vitreous humor, crystalline suspension 20 mg/mL, 1 week pre-treatment): 100%
- drug concentration in plasma lower than concentration in vitreous tissue [4]: at least three orders of magnitude lower
